Experimental data as given in patent publication US9617276B2, “Compounds and methods for treating AIDS and HIV infections” (priority 2009, dated 2017).
Values joined by “and” are separate entries in the source; they are usually repeats but may differ in a detail not shown here. Identical values can stand only once. Like-named read-outs stand apart in the source and are kept apart here.

How the values were obtained:
HIV-2ROD = test: drug susceptibility, MT-2 cells, MTT assay, HIV-2ROD; type: cell-based
Method: (§1) All assays were performed in duplicate or triplicate. […] All assays were performed in duplicate or triplicate.
(§2) Each selectivity index denotes a ratio of CC50 to EC50 against HIV-1LAI N.D., not done.

HIV-1LAI = test: drug susceptibility, MT-2 cells, MTT assay, HIV-1LAI; type: cell-based; details: for Selectivity Index: ratio of CC50 to EC50 against HIV-1LAI
Method: as §1, §2

HIV-1NL4-3 = test: in vitro selection of PI-resistant HIV-1 variants in MT-4 cells; type: cell-based; details: HIV-1NL4-3 in MT-4 cells, increasing drug concentrations
Text: The culture supernatants were harvested on day 7 and used to infect fresh MT-4 cells for the next round of culture in the presence of increasing concentrations of each drug.

HIV-1APV5μM = test: microbe, parasite or virus in culture; type: cell-based; details: for EC50: Human immunodeficiency virus 1, MT4, read-out: EC50 (μM), HIV-1APV5 μM; for n-fold change in EC50, HIV-1APV5 μM: compared to wild-type HIV-1NL4-3
HIV-1NFV5μM = test: microbe, parasite or virus in culture; type: cell-based; details: for EC50: Human immunodeficiency virus 1, MT4, read-out: EC50 (μM), HIV-1NPV5 μM; for n-fold change in EC50, HIV-1NPV5 μM: compared to wild-type HIV-1NL4-3
HIV-1SQV5μM = test: microbe, parasite or virus in culture; type: cell-based; details: for EC50: Human immunodeficiency virus 1, MT4, read-out: EC50 (μM), HIV-1SQV5 μM; for n-fold change in EC50, HIV-1SQV5 μM: compared to wild-type HIV-1NL4-3
cytotoxicity CC50 = type: cell-based, Human; details: human
HIV-2EHO = test: drug susceptibility, MT-2 cells, MTT assay, HIV-2EHO; type: cell-based
Method: as §1, §2

[1] = tested on: HIV-1ERS104pre (wild-type); test: p24 Gag inhibition in PHA-PBMCs, HIV-1ERS104pre; type: cell-based; details: mean ± 1 SD
Method: (§3) The susceptibility of HIV-1LAI and primary HIV-1 isolates to various drugs were determined as described previously (Koh et al. 2003 Antimicrob Agents Chemother 47:3123-9). Briefly, MT-2 cells (2×10^4/ml) were exposed to 100 50% tissue culture infectious doses (TCID50S) of HIV-1LAI, in the presence or absence of various concentrations of drugs in 96-well microculture plates and were incubated at 37° C. for 7 days. After 100 μl of the medium was removed from each well, 3-(4,5-dimetylthiazol-2-yl)-2,5-diphenyltetrazolium bromide (MTT) solution (10 μl, 7.5 mg/ml in phosphate-buffered saline) was added to each well in the plate, followed by incubation at 37° C. for 3 h. […] All assays were performed in duplicate or triplicate. To determine the susceptibility of primary HIV-1 isolates to drugs, phytohemagglutinin-activated peripheral blood mononuclear cells (PHA-PBMCs; 106/ml) were exposed to 50 TCID50S of each. The target cells were exposed to HIV-1104pre or drug-resistant HIV-1 in the presence or absence of various concentrations of drugs and were incubated for 7 days. Upon the conclusion of the culture, the amounts of p24 Gag protein in the supernatants were determined using a fully automated chemiluminescent enzyme immunoassay system (Lumipulse F; Fujirebio Inc., Tokyo, Japan) (Maeda et al. 2001 J Biol Chem 276:35194-200). To determine the drug susceptibility of certain laboratory HIV-1 strains, MT-4 cells were used as target cells. In brief, MT-4 cells (10^5/ml) were exposed to 100 TCID50S of drug-resistant HIV-1 strains in the presence or absence of various concentrations of drugs and on day 7 of culture, the supernatant was harvested and the amounts of p24 Gag protein were determined. […] All assays were performed in duplicate or triplicate.
(§4) These clinical strains contained 9 to 14 amino acid substitutions in the protease-encoding region, which have reportedly been associated with HIV-1 resistance to various PIs.
(§5) Amino acid substitutions identified in the protease-encoding region compared to the consensus type B sequence cited from the Los Alamos database include L63P in HIV-1ERS104pre; L10I, K14R, L33I, M36I, M46I, F53I, K55R, I62V, L63P, A71V, G73S, V82A, L90M, and I93L in HIV-1MDR/B; L10I, I15V, K20R, L24I, M36I, M46L, I54V, I62V, L63P, K70Q, V82A, and L89M in HIV-1MDR/C; L10I, V11I, T12E, I15V, L19I, R41K, M46L, L63P, A71T, V82A, and L90M in HIV-1MDR/G; L10I, K14R, R41K, M46L, I54V, L63P, A71V, V82A, L90M, I93L in HIV-1MDR/TM; L10I, K43T, M46L, I54V, L63P, A71V, V82A, L90M, and Q92K in HIV-1MDR/MM; L10I, L24I, I33F, E35D, M36I, N37S, M46L, I54V, R57K, I62V, L63P, A71V, G73S, and V82A in HIV-1MDR/JSL. HIV-1ERS104pre served as a source of wild-type HIV-1. EC50s were determined by using PHA-PBMs as target cells, and inhibition of p24 Gag protein production by each drug was used as an end point. Numbers in parentheses represent n-fold changes of EC50s for each isolate compared to EC50s for wild-type HIV-1ERS104pre.

HIV-1MDR/B = type: cell-based; details: for EC50 (μM), HIV-1MDR/B (SI): PHA-PBMCs, p24 Gag; for n-fold change of EC50, HIV-1MDR/B: compared to wild-type HIV-1ERS104pre
Method: as §3, §4, §5

HIV-1MDR/C = type: cell-based; details: for EC50 (μM), HIV-1MDR/C (SI): PHA-PBMCs, p24 Gag; for n-fold change of EC50, HIV-1MDR/C: compared to wild-type HIV-1ERS104pre
Method: as §3, §4, §5

HIV-1MDR/TM = type: cell-based; details: for EC50 (μM), HIV-1MDR/TM (SI): PHA-PBMCs, p24 Gag; for n-fold change of EC50, HIV-1MDR/TM: compared to wild-type HIV-1ERS104pre
Method: as §3, §4, §5

HIV-1MDR/G = type: cell-based; details: for EC50 (μM), HIV-1MDR/G (SI): PHA-PBMCs, p24 Gag; for n-fold change of EC50, HIV-1MDR/G: compared to wild-type HIV-1ERS104pre
Method: as §3, §4, §5

[2] = tested on: multidrug-resistant clinical HIV-1 isolates (HIV-1MDR); test: microbe, parasite or virus in culture; type: cell-based
In short: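 Clinical PI-resistant isolates (9–14 protease-region substitutions) are tested in phytohemagglutinin-stimulated peripheral blood mononuclear cells exposed to 50 TCID50 of virus in the presence of varying drug concentrations. Cultures run 7 days before supernatant p24 Gag is measured. The endpoint is the EC50 for blocking p24 production.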

[3] = Human immunodeficiency virus 2, MT2, MT-2 cells, MTT assay, mean ± 1 SD, read-out: EC50 (μM) for HIV-2ROD
[4] = Human immunodeficiency virus 1, MT2, MT-2 cells, MTT assay, mean ± 1 SD, read-out: EC50 (μM) for HIV-1LAI
[5] = Human immunodeficiency virus 2, MT2, MT-2 cells, MTT assay, mean ± 1 SD, read-out: EC50 (μM) for HIV-2EHO
[6] = Human immunodeficiency virus 2, MT2, read-out: EC50 (μM) for HIV-2ROD
[7] = Human immunodeficiency virus 1, MT2, read-out: EC50 (μM) for HIV-1LAI
[8] = Human immunodeficiency virus 2, MT2, read-out: EC50 (μM) for HIV-2EHO

Row | SMILES | EC50 (HIV-1APV5μM) [µM] | EC50 (HIV-1NFV5μM) [µM] | EC50 (HIV-1SQV5μM) [µM] | n-fold change in EC50, HIV-1APV5 μM (HIV-1APV5μM) | n-fold change in EC50, HIV-1NPV5 μM (HIV-1NFV5μM) | n-fold change in EC50, HIV-1SQV5 μM (HIV-1SQV5μM) | EC50 (μM), HIV-1ERS104pre (wild-type SI) [1] [µM] | EC50 (μM), HIV-1MDR/B (SI) (HIV-1MDR/B) [µM] | n-fold change of EC50, HIV-1MDR/B (HIV-1MDR/B) | EC50 (μM), HIV-1MDR/C (SI) (HIV-1MDR/C) [µM] | n-fold change of EC50, HIV-1MDR/C (HIV-1MDR/C) | EC50 (μM), HIV-1MDR/TM (SI) (HIV-1MDR/TM) [µM] | n-fold change of EC50, HIV-1MDR/TM (HIV-1MDR/TM) | EC50 (μM), HIV-1MDR/G (SI) (HIV-1MDR/G) [µM] | n-fold change of EC50, HIV-1MDR/G (HIV-1MDR/G) | EC50 (HIV-2ROD; [6]) [µM] | EC50 (HIV-1LAI; [7]) [µM] | Selectivity Index (HIV-1LAI) | CC50 (cytotoxicity CC50) [nM] | EC50 (HIV-2EHO; [8]) [µM] | also measured
1 | CC(C)CN(C[C@@H](O)[C@H](Cc1ccccc1)NC(=O)O[C@H]1CCOC1)S(=O)(=O)c1ccc(N)cc1 [APV, Amprenavir] | > 1 | 0.028 ± 0.005 | 0.18 ± 0.1 |  |  |  |  |  |  |  |  |  |  |  |  |  |  |  |  |  | EC50 (HIV-2ROD; [3]): 0.42 ± 0.1 µM; EC50 (HIV-1LAI; [4]): 0.024 ± 0.008 µM; passage by which HIV-1 variants replicating in the presence of 1 μM drug emerged (HIV-1NL4-3): 20 passages; CC50 (cytotoxicity CC50; MT-2 cells, read-out: CC50): > 100000 nM; EC50 (HIV-2EHO; [5]): 0.12 ± 0.03 µM
2 | COC(=O)N[C@H](C(=O)N[C@@H](Cc1ccccc1)[C@@H](O)CN(Cc1ccc(-c2ccccn2)cc1)NC(=O)[C@@H](NC(=O)OC)C(C)(C)C)C(C)(C)C [AZV, Atazanavir] | 0.006 ± 0.002 | 0.027 ± 0.005 | 0.21 ± 0.065 | (2) | (7) | (53) | 0.002 ± 0.001 | 0.20 ± 0.10 | (100) | 0.065 ± 0.008 | (33) | 0.065 ± 0.008 | (33) | 0.033 ± 0.024 | (17) |  |  |  |  |  | 
3 | COc1ccc2c(c1)OCCCC=CCCCCN(CC(O)C(Cc1ccccc1)NC(=O)OC1COC3OCCC13)S2(=O)=O (centres unmarked) [Compound 14b] | > 1 | 0.041 ± 0.006 | 0.046 ± 0.021 | > 111 | (5) | (5) |  | 0.089 ± 0.016 | (13) | 0.029 ± 0.001 | (4) | 0.072 ± 0.014 | (10) | 0.028 ± 0.004 | (4) | 0.025 ± 0.002 | 0.004 ± 0.001 | 8,280 | 33100 ± 2500 | 0.018 ± 0.013 | passage by which HIV-1 variants replicating in the presence of 1 μM drug emerged (HIV-1NL4-3): 37 passages; EC50 (μM), HIV-1ERS104pre (wild-type SI) ([1]; listed as GRL-286): 0.007 µM and 0.007 ± 0.002 µM
4 | COc1ccc2c(c1)OCCC=CCCCCN(CC(O)C(Cc1ccccc1)NC(=O)OC1COC3OCCC13)S2(=O)=O (centres unmarked) [Compound 14c] | > 1 | 0.04 ± 0.017 | 0.02 ± 0.009 |  |  |  |  |  |  |  |  |  |  |  |  | 0.017 ± 0.001 | 0.002 ± 0.001 |  | 48800 ± 1300 | 0.01 ± 0.007 | 
5 | Cc1cccc(C)c1OCC(=O)N[C@@H](Cc1ccccc1)[C@@H](O)C[C@H](Cc1ccccc1)NC(=O)[C@H](C(C)C)N1CCCNC1=O [LPV, lopinavir] | > 1 | 0.037 ± 0.004 | 0.12 ± 0.02 | > 22 | (1) | (2) | 0.034 ± 0.002 | > 1 | > 29 | > 1 | > 29 | > 1 | > 29 | 0.26 ± 0.04 | (8) |  |  | >2,560 | > 100000 |  | EC50 (HIV-2ROD; [3]): 0.028 ± 0.004 µM; EC50 ([2]; Human immunodeficiency virus 1, read-out: EC50 with multidrug-resistant clinical HIV-1 isolates (mostly)): > 1000 nM; EC50 (HIV-1LAI; [4]): 0.039 ± 0.006 µM; EC50 (HIV-2EHO; [5]): 0.035 ± 0.025 µM
6 | CCC[C@@]1(CCc2ccccc2)CC(O)=C([C@H](CC)c2cccc(NS(=O)(=O)c3ccc(C(F)(F)F)cn3)c2)C(=O)O1 [TPV, Tipranavir] | 0.22 ± 0.089 | 0.039 ± 0.041 | 0.022 ± 0.009 | (0.7) | (0.1) | (0.1) | 0.12 ± 0.03 | 0.18 ± 0.009 | (2) | 0.38 ± 0.079 | (3) | 0.38 ± 0.05 | (3) | 0.24 ± 0.08 | (2) | 0.33 ± 0.07 | 0.17 ± 0.005 | 320 |  | 0.3 ± 0.15 | EC50 ([2]; Human immunodeficiency virus 1, read-out: greatest EC50 value against the clinical isolates): 380 nM
